Source: patent US20130005747A1, “METHOD FOR SELECTING A CANCER THERAPY” (Cyclacel Limited, priority 2010, published 2013)

Tests used:
Assay in all cases: Fractional growth, 72 h seliciclib
Format in all cases: cell-based, human
[1] = system: A2058; details: A2058 (Skin), 15 μM seliciclib
Text: (§1) A total of 270 human cancer cell lines from diverse cancer histopathologic types were investigated.

[2] = system: A431; details: A431 (Skin), 15 μM seliciclib
Text: as §1

[3] = system: 1A6; details: 1A6 (Bladder), 15 μM seliciclib
Text: as §1

[4] = system: G-401; details: G-401 (Kidney), 15 μM seliciclib
Text: as §1

[5] = system: ABC-1; details: ABC-1 (Lung: NSCLC), 15 μM seliciclib
Text: as §1

[6] = system: AN3CA; details: AN3CA (Uterus), 15 μM seliciclib
Text: as §1

[7] = system: KYSE-510; details: KYSE-510 (Esophagus), 15 μM seliciclib
Text: as §1

[8] = system: SiHa; details: SiHa (Cervix), 15 μM seliciclib
Text: as §1

[9] = system: Daoy; details: Daoy (Brain), 15 μM seliciclib
Text: as §1

[10] = system: MG-63; details: MG-63 (Bone), 15 μM seliciclib
Text: as §1

[11] = system: DoTc2 4510; details: DoTc2 4510 (Cervix), 15 μM seliciclib
Text: as §1

[12] = system: PCI-4B; details: PCI-4B (Head & Neck), 15 μM seliciclib
Text: as §1

[13] = system: MCF7; details: MCF7 (Breast), 15 μM seliciclib
Text: as §1

[14] = system: BHY; details: BHY (Head & Neck), 15 μM seliciclib
Text: as §1

[15] = system: HGC-27; details: HGC-27 (Stomach), 15 μM seliciclib
Text: as §1

[16] = system: JHU-022; details: JHU-022 (Head & Neck), 15 μM seliciclib
Text: as §1

[17] = system: MIA PaCa-2; details: MIA PaCa-2 (Pancreas), 15 μM seliciclib
Text: as §1

[18] = system: BT-549; details: BT-549 (Breast), 15 μM seliciclib
Text: as §1

[19] = system: HT115; details: HT115 (Intestine), 15 μM seliciclib
Text: as §1

[20] = system: G-292 Clone A141B1; details: G-292 Clone A141B1 (Bone), 15 μM seliciclib
Text: as §1

[21] = system: H2052; details: H2052 (Lung), 15 μM seliciclib
Text: as §1

[22] = system: C-4 I; details: C-4 I (Cervix), 15 μM seliciclib
Text: as §1

[23] = system: Saos-2; details: Saos-2 (Bone), 15 μM seliciclib
Text: as §1

[24] = system: LU65C; details: LU65C (Lung: NSCLC), 15 μM seliciclib
Text: as §1

[25] = system: SW 13; details: SW 13 (Kidney), 15 μM seliciclib
Text: as §1

[26] = system: TCCSUP; details: TCCSUP (Bladder), 15 μM seliciclib
Text: as §1

[27] = system: RPMI 2650; details: RPMI 2650 (Head & Neck), 15 μM seliciclib
Text: as §1

[28] = system: SW756; details: SW756 (Cervix), 15 μM seliciclib
Text: as §1

[29] = system: KATO III; details: KATO III (Stomach), 15 μM seliciclib
Text: as §1

[30] = system: HO-1-u-1; details: HO-1-u-1 (Head & Neck), 15 μM seliciclib
Text: as §1

[31] = system: SK-OV-3; details: SK-OV-3 (Ovary), 15 μM seliciclib
Text: as §1

[32] = system: MS751; details: MS751 (Cervix), 15 μM seliciclib
Text: as §1

[33] = system: HuCCT1; details: HuCCT1 (Liver), 15 μM seliciclib
Text: as §1

[34] = system: JHU-019; details: JHU-019 (Head & Neck), 15 μM seliciclib
Text: as §1

[35] = system: KP-3L; details: KP-3L (Pancreas), 15 μM seliciclib
Text: as §1

[36] = system: CAL-62; details: CAL-62 (Thyroid), 15 μM seliciclib
Text: as §1

[37] = system: PCI-15B; details: PCI-15B (Head & Neck), 15 μM seliciclib
Text: as §1

## CC[C@H](CO)Nc1nc(NCc2ccccc2)c2ncn(C(C)C)c2n1 [seliciclib, roscovitine]
[1]
  Fractional Growth: 0.6341
[2]
  Fractional Growth: 0.3116
[3]
  Fractional Growth: 0.6475
[4]
  Fractional Growth: 0.3542
[5]
  Fractional Growth: 0.6543
[6]
  Fractional Growth: 0.2094
[7]
  Fractional Growth: 0.4141
[8]
  Fractional Growth: 0.4302
[9]
  Fractional Growth: 0.6209
[10]
  Fractional Growth: 0.5484
[11]
  Fractional Growth: 0.6205
[12]
  Fractional Growth: 0.4686
[13]
  Fractional Growth: 0.4137
[14]
  Fractional Growth: 0.5602
[15]
  Fractional Growth: 0.2806
[16]
  Fractional Growth: 0.6294
[17]
  Fractional Growth: 0.4826
[18]
  Fractional Growth: 0.758
[19]
  Fractional Growth: 0.4837
[20]
  Fractional Growth: 0.6393
[21]
  Fractional Growth: 0.3892
[22]
  Fractional Growth: 0.5067
[23]
  Fractional Growth: 0.5733
[24]
  Fractional Growth: 0.3767
[25]
  Fractional Growth: 0.5624
[26]
  Fractional Growth: 0.6407
[27]
  Fractional Growth: 0.1937
[28]
  Fractional Growth: 0.6484
[29]
  Fractional Growth: 0.4299
[30]
  Fractional Growth: 0.4858
[31]
  Fractional Growth: 0.7375
[32]
  Fractional Growth: 0.3573
[33]
  Fractional Growth: 0.4559
[34]
  Fractional Growth: 0.4229
[35]
  Fractional Growth: 0.4338
[36]
  Fractional Growth: 0.3139
[37]
  Fractional Growth: 0.2847
